Data from ChEMBL document CHEMBL1201862, “PubChem BioAssay data set” (2004).
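Briefly, cells in 96-well plates were exposed to five compound concentrations for 48 h, and endpoints were estimated by linear interpolation. The concentration for 50% growth inhibition is given as GI50.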 Activity calls are given as the source filed them. Rule as the data show it: active = GI50 up to about 1.1 µM and inactive = higher.

Experiments:
Test in all cases: NCI anticancer screen, dose series, 48 h
[1] = tested on: 786-0
[2] = tested on: A549
[3] = tested on: ACHN
[4] = tested on: CAKI-1
[5] = tested on: CCRF-CEM
[6] = tested on: COLO 205
[7] = tested on: DU-145
[8] = tested on: EKVX
[9] = tested on: HCC 2998
[10] = tested on: HCT-116
[11] = tested on: HCT-15
[12] = tested on: HL-60
[13] = tested on: HOP-62
[14] = tested on: HOP-92
[15] = tested on: HT-29
[16] = tested on: Hs-578T
[17] = tested on: IGROV-1
[18] = tested on: K562
[19] = tested on: KM12
[20] = tested on: LOX IMVI
[21] = tested on: M14
[22] = tested on: MCF7
[23] = tested on: MDA-MB-231
[24] = tested on: MDA-MB-435
[25] = tested on: MDA-N
[26] = tested on: MOLT-4
[27] = tested on: Malme-3M
[28] = tested on: NCI-H226
[29] = tested on: NCI-H23
[30] = tested on: NCI-H460
[31] = tested on: NCI-H522
[32] = tested on: NCI/ADR-RES
[33] = tested on: OVCAR-3
[34] = tested on: OVCAR-4
[35] = tested on: OVCAR-5
[36] = tested on: OVCAR-8
[37] = tested on: PC-3
[38] = tested on: RPMI-8226
[39] = tested on: RXF 393
[40] = tested on: SF-268
[41] = tested on: SF-295
[42] = tested on: SF-539
[43] = tested on: SK-MEL-28
[44] = tested on: SK-MEL-2
[45] = tested on: SK-MEL-5
[46] = tested on: SK-OV-3
[47] = tested on: SN12C
[48] = tested on: SNB-19
[49] = tested on: SNB-75
[50] = tested on: SR
[51] = tested on: SW-620
[52] = tested on: T47D
[53] = tested on: TK-10
[54] = tested on: U-251
[55] = tested on: UACC-257
[56] = tested on: UACC-62
[57] = tested on: UO-31

Measured: GI50

CC(C)C(NCc1c(O)ccc2c(-c3ccccc3)cc(=O)oc12)C(=O)O (configuration not stated)
inactive: [1] > 100 µM | [2] > 100 µM | [3] > 100 µM | [4] > 100 µM | [5] > 100 µM | [6] > 100 µM | [7] > 100 µM | [8] > 100 µM | [9] > 100 µM | [10] > 100 µM | [12] > 100 µM | [13] > 100 µM | [14] > 100 µM | [15] > 100 µM | [16] > 100 µM | [17] > 100 µM | [18] > 100 µM | [19] > 100 µM | [20] > 100 µM | [21] > 100 µM | [22] > 100 µM | [23] > 100 µM | [24] > 100 µM | [25] > 100 µM | [26] > 100 µM | [27] > 100 µM | [28] > 100 µM | [29] > 100 µM | [30] > 100 µM | [31] > 100 µM | [32] > 100 µM | [33] > 100 µM | [34] > 100 µM | [35] > 100 µM | [36] > 100 µM | [37] > 100 µM | [38] > 100 µM | [39] > 100 µM | [40] > 100 µM | [41] > 100 µM | [42] > 100 µM | [43] > 100 µM | [44] > 100 µM | [45] > 100 µM | [46] > 100 µM | [47] > 100 µM | [48] > 100 µM | [49] 83.9 µM | [50] > 100 µM | [51] > 100 µM | [52] > 100 µM | [53] > 100 µM | [54] > 100 µM | [55] > 100 µM | [56] > 100 µM | [57] > 100 µM
> 100 µM: [11]
